Source: patent US20100069487A1, “METHOD FOR THE TREATMENT OF PSORIASIS” (REDOX PHARMACEUTICAL CORPORATION, priority 2006, published 2010)

Key:
[1] = in vivo
From the text: • 1. It was recently discovered that the transcription factor Zinc-finger protein Gli-similar (Glisl) is found only in psoriatic and not in the epidermis of healthy skin^2. The expression of this protein is restricted to the suprabasal level of the psoriatic epidermis. […] The mode of action of the drug involves displacement Zinc from the protein by the axial ligation of the drug's cobalt (III) complex to the nitrogen of the imidazole ring of the histidine residues. The zinc-finger bearing protein is thus inactivated^4. • We have discovered that Doxovir (CTC-96) will inactivate Glis1 in Psoriatic epidermis and as a result may selectively retard the abnormal proliferation and differentiation of psoriatic keratinocytes. • 2. There have been several reports of the possibility that Human Papilloma Viruses (HPVs) are associated with at least certain manifestations of psoriasis (e.g. ^5,6,7,8). Papillomaviruses proliferate and affect the differentiation and proliferation of keratinocytes. The possible role of the virus (particularly HPV type 5) in the etiology or the maintenance of the abnormal differentiation of psoriatic human skin keratinocytes has thus been postulated. • JunB protein, a component of the ubiquitous transcription factor AP-1, regulates cell proliferation, differentiation, stress responses and cytokine expression in various tissues. […]

[2] = test system: Zinc-fingers in which the Zinc is tetrahedrally coordinated to cysteines and histidines; conditions: cysteine/histidine-coordinated Zinc; cited from earlier work
[3] = test system: Papillomaviruses; conditions: cited from earlier work
[4] = test system: type II collagen-induced arthritis; conditions: mice; cited from earlier work

## CC(/C=C(/C)[O-])=NCCN=C(C)/C=C(/C)[O-].Cc1ncc[nH]1.Cc1ncc[nH]1.[Br-].[Co+3] [Doxovir]
[1]
  adverse effects on intact skin: no adverse effects on intact skin
[2]
  disruption of structure and function of Zinc-fingers: selectively disrupts the structure and function of Zinc-fingers
[3]
  anti-papillomavirus activity: distinct anti-papillomavirus activity
[4]
  therapeutic activity for type II collagen-induced arthritis: proven to have therapeutic activity
